# Reference: patent US20150094264A1, “USE OF OBESTATIN FOR MUSCLE REGENERATION” (UNIVERSIDADE DE SANTIAGO DE COMPOSTELA, priority 2012, published 2015)
# “Also recorded” adds a separate entry of the source.
# Assays:
# [1] = test system: L6E9 myotubes; assay: Activation of regulatory enzymes by obestatin in L6E9 myotubes, immunoblot; assay type: cell-based, rat; details: obestatin 5 nM
# Method: (§1) FIG. 1. Activation of regulatory enzymes of mitogenesis and myogenesis by obestatin in L6E9 myoblasts and myotubes. Effect of obestatin on activity of regulatory enzymes of the mitogenic capacity (ERK 1/2), metabolic capacity (Akt and AMPK) and myogenic capacity (Akt and p38). Based on a dose-response study, the saturating dose for the maximum enzymatic activation is established for a concentration of 5 nM. […] Inactivation of AMPK is described in both cell models. The activation profile discovers bimodal characteristics for the action of obestatin: 1.—mitogenic activation in myoblasts; and, 2.—myogenic activation. The immunoblots are representative of 6 independent assays. […]
# (§2) The tissue or cell samples were directly lysed in RIPA buffer [Tris-HCl (pH 7.2), 50 mM; NaCl, 150 mM; EDTA, 1 mM; NP-40, 1% (v/v); Sodium deoxycholate, 0.25% (w/v); protease inhibitors (Sigma); phosphatise inhibitors (Sigma)]. The lysates were clarified by centrifugation (14,000×g during 15 min at 4° C.) and the protein concentration was quantified using QuantiPro™ BCA assay kit (Sigma). […] The immunoreactive bands were detected by chemiluminescence (Pierce ECL Western Blotting Substrate; Thermo Scientific, Ill., USA). […]
# [2] = test system: AMPKa; assay: Dephosphorylation/inactivation of AMPKa [pAMPKa(T172)] by obestatin in L6E9 cells, immunoblot; assay type: cell-based, rat; details: obestatin 5 nM; L6E9 myoblasts (both cell models)
# Method: as §1, §2
# [3] = test system: damaged tibialis anterior of mouse; assay: Histological (hematoxylin/eosin) analysis of muscle regeneration in damaged tibialis anterior of mouse; assay type: in vivo, Swiss mice; details: 300 nmol/kg weight local
# Method: FIG. 9. Immunohistochemical analysis of the effect of the exogenous administration of obestatin on the capacity for muscle regeneration in the damaged tibialis anterior of mouse (animal model). The images shown are representative of the sections of the damaged tibialis anterior muscle (hematoxylin/eosin staining) under the local exogenous administration of obestatin (300 nmol/kg/24 h) or PBS (control) 48, 96, 168 and 240 h after inducing the damage. The images show the area of damage and regeneration at the indicated times.
# FIG. 10. Quantitative analysis of the areas of the regenerative fibres of the tibialis anterior 96 and 168 hours after inducing the damage and exogenous administration of obestatin or PBS (control). The analysis corresponds to the area of regeneration myofibers in the tibialis anterior. For this purpose, an immunohistochemical analysis was performed by staining with hematoxylin/eosin and later quantification of the area of the myofiber by the use of the ImageJ64 program (n=10 per group; mean±standard error; *, p<0.005).
# The muscle samples were mounted in a cold freezing medium [Tragacanth; Santa Cruz Biotechnology (CA, USA)] and frozen in a mixture of nitrogen-isopentane. The tissue sections were obtained by serial cuts with a cryostat (10 μm) and were mounted in adhesion slides for histochemistry (Marienfeld, Lauda-Konigshofen, Germany). The sections fixed were stained with hematoxylin/eosin. The quantification of the area of the regenerative myofibers was performed by using ImageJ64 analysis software.
# The mice (30 g; n=50) were maintained in 12 h light-darkness cycled with free access to standard diet and water. To induce the muscle damage, the tibialis anterior muscle (TA) was extracted under anaesthesia and subjected to three cycles of damage due to cold contact applying along the length of the muscle a metal bar cooled in liquid nitrogen. The damaged muscles were treated locally with obestatin injection (300 nmol/kg weight) or the corresponding vehicle (PBS; control) during the times indicated in 24 h intervals. […]
# [4] = test system: Akt; assay: Activation of Akt [pAkt(S473)] by obestatin in L6E9 myoblasts, immunoblot; assay type: cell-based, rat
# Method: FIG. 1. Activation of regulatory enzymes of mitogenesis and myogenesis by obestatin in L6E9 myoblasts and myotubes. Effect of obestatin on activity of regulatory enzymes of the mitogenic capacity (ERK 1/2), metabolic capacity (Akt and AMPK) and myogenic capacity (Akt and p38). Based on a dose-response study, the saturating dose for the maximum enzymatic activation is established for a concentration of 5 nM. […] Inactivation of AMPK is described in both cell models. The activation profile discovers bimodal characteristics for the action of obestatin: 1.—mitogenic activation in myoblasts; and, 2.—myogenic activation. The immunoblots are representative of 6 independent assays.
# The studies were performed based on the use of L6E9 rat myoblasts which were maintained in growth medium (GM) formed by DMEM (Dulbecco's Modified Eagle Medium) supplemented with 10% fetal bovine serum (FBS), 100 U/mL penicillin, and 100 U/mL streptomycin. For the differentiation, the cells were cultured at 80-100% of confluence in GM and it was replaced for differentiation medium (DM) formed by DMEM supplemented with 2% FBS, 100 U/mL penicillin, and 100 U/mL streptomycin during 6 days.
# The tissue or cell samples were directly lysed in RIPA buffer [Tris-HCl (pH 7.2), 50 mM; NaCl, 150 mM; EDTA, 1 mM; NP-40, 1% (v/v); Sodium deoxycholate, 0.25% (w/v); protease inhibitors (Sigma); phosphatise inhibitors (Sigma)]. The lysates were clarified by centrifugation (14,000×g during 15 min at 4° C.) and the protein concentration was quantified using QuantiPro™ BCA assay kit (Sigma). For immunoblot, equal amounts of protein were loaded which were fractionated in SOS-PAGE gels and transferred to nitrocellulose membranes. The immunoreactive bands were detected by chemiluminescence (Pierce ECL Western Blotting Substrate; Thermo Scientific, Ill., USA).
# To define the mitogenic and myogenic effect of obestatin, the activation capacity was studied of intracellular targets regulating proliferation (ERK1/2) and/or differentiation (p38 and Akt). […]
# [5] = test system: damaged tibialis anterior of mouse; assay: Blood vessels (isolectin positive) per myofiber in damaged tibialis anterior of mouse; assay type: in vivo, Swiss mice; details: 300 nmol/kg/24 h; 10 days after induction of muscle damage
# Method: FIG. 13. Quantification of the blood vessels per myofiber in the tibialis anterior 10 days after the induction of muscle damage and exogenous treatment of obestatin (300 nmol/kg/24 h) or vehicle (PBS). Quantification of the number of blood vessels (immunofluorescence: positivity to isolectin) per myofiber (mean±standard error; *, p<0.005) of sections of the tibialis anterior treated with obestatin (300 nmol/kg/24 h) or PBS (control) 10 days after inducing the damage.
# For the tissue immunofluorescence analysis, frozen sections were obtained which were fixed using a buffered solution of PBS-paraformaldehyde during 15 min, washed, permeabilized and blocked with PBT during 30 min, and later incubated with the corresponding primary antibody (anti-eMHC, anti-laminin antibody) diluted in PBT (1:50) during 12 h at 4° C. After three washes with PBS, the tissue sections were incubated with secondary antibody in PBT (1:1000) during 45 min at 37° C. […] The digital images of the cell culture were acquired with a Leica TCS-SP2 confocal microscope.
# The mice (30 g; n=50) were maintained in 12 h light-darkness cycled with free access to standard diet and water. To induce the muscle damage, the tibialis anterior muscle (TA) was extracted under anaesthesia and subjected to three cycles of damage due to cold contact applying along the length of the muscle a metal bar cooled in liquid nitrogen. […]
substance,measurement,setting,value
obestatin,"activation dynamics of Akt, p38, ERK1/2 and AMPKa compared with myoblasts",[1],similar
same,effect on AMPKa phosphorylation in T172 [pAMPKa(T172)],[2],Inactivation; also recorded: dephosphorylates
same,regenerative process (restructuring of the myofibers in the area of damage) in relation to controls,"[3]; 48, 96, 168 and 240 h",acceleration
same,area of the regenerative fibres in the tibialis anterior in relation to controls,[3]; 96 and 168 h after the treatment,significant increase
same,calibre of the regenerative myofibers in relation to controls,[3]; hematoxylin/eosin sections,significant increase
same,obestatin concentration at which activation of Akt [pAkt(S473)] was observed,[4],0.1 nM
same,obestatin concentration at which pAkt(S473) phosphorylation levels reached saturable values,[4]; dose-response,5 nM
same,time post-stimulation of maximum pAkt(S473) levels,[4]; obestatin 5 nM,10 min
same,capillary density (isolectin-positive blood vessels per myofiber) in relation to vehicle (PBS),[5],significant increase
